Measurements published in BindingDB's records for doi:10.1124/mol.61.2.415 (University of Ferrara, 2002).
Where “and” joins values, the source holds several entries; their conditions need not be identical. Identical values can stand only once.

Target: T1, Adenosine receptor A3 (Homo sapiens, UniProt P0DMS8)
T1 sequence (P0DMS8 whole entry): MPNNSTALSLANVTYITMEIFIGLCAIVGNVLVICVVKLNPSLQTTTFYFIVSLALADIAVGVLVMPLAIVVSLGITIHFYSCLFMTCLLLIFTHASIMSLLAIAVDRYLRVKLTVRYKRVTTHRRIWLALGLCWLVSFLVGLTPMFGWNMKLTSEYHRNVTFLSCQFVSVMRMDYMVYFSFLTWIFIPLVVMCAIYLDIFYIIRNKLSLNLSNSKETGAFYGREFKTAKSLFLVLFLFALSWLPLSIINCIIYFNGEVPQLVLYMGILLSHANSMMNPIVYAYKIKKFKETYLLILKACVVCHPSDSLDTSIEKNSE

| SMILES | Ki |
| --- | --- |
| CCCCC#Cc1nc(N)c2ncn([C@@H]3O[C@H](C(=O)NCC)[C@H](O)C3O)c2n1 (stereo partly drawn) [(2S,3R,5R)-5-[6-amino-2-(hex-1-yn-1-yl)-9H-purin-9-yl]-N-ethyl-3,4-dihydroxyoxolane-2-carboxamide] | 750 nM and 740 nM |
| Nc1nc2c(cnn2CCc2ccccc2)c2nc(-c3ccco3)nn12 | > 10000 nM |
| Nc1nc2ccc(Cl)cc2c2nc(-c3ccco3)nn12 | 122 nM |

Second part, the molecule after the results:

| Ki | SMILES |
| --- | --- |
| 1 nM and 0.53 nM | CCCn1cc2c(nc(NC(=O)Nc3ccccc3)n3nc(-c4ccco4)nc23)n1 [MRE 3055F20] |
| 1.4 nM and 0.93 nM | CCCCn1cc2c(nc(NC(=O)Nc3ccccc3)n3nc(-c4ccco4)nc23)n1 |
| 1.2 nM | CCn1cc2c(nc(NC(=O)Nc3ccccc3)n3nc(-c4ccco4)nc23)n1 |
| 1.7 nM and 1.5 nM | Cn1cc2c(nc(NC(=O)Nc3ccccc3)n3nc(-c4ccco4)nc23)n1 |
